Experimental data reported in patent publication US20240393292A1, “ALLERGY ANTIGEN AND EPITOPE THEREOF” (HOYU CO., LTD., priority 2019, published 2024).
Blank lines part the entries; values can stand above or below the substance they belong to.

System: IgE antibodies from patients
Test: Wheat epitope mapping (2): overlapping 10-amino-acid peptide fragments shifted by one amino acid;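 as to Rank of partial sequence as epitope binding to IgE antibody: key = sequence deemed particularly important within the common 15-residue sequence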;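 as to epitope sequence binding to IgE antibody, rank (Key/Preferably/More preferably): key of grades: preferably = shorter partial sequence still acting as epitope; more preferably = sequence improving IgE binding; key = particularly important sequence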
Format: binding, human
How it was run: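 Cellulose-bound 10-mer peptides offset by one residue were probed with patient serum IgE and detected by chemiluminescence. Secondary-antibody-only signals were subtracted per peptide. Residual binding was expressed as % of the parent overlapping peptide, scored as none (<30%), poor (30–<50%), somewhat poor (50–<70%) or retained (≥70%).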

[1] = serum of patient P12 (WDEIA), sequence without X
[2] = serum of patient P33 (WDEIA), sequence without X
[3] = serum of patient P8 (WDEIA), sequence without X
[4] = serum of patient P26 (WDEIA), sequence without X
[5] = serum of patient P21 (WDEIA), sequence without X
[6] = serum of patient P14 (WDEIA), sequence without X
[7] = serum of patient P32 (WDEIA), sequence without X
[8] = serum of patient G7 (adult, general immediate type allergy to wheat), sequence without X
[9] = serum of patient P7 (WDEIA), partial sequence

Substance: 1707 (SQVIIM; REGION 1..6: note = epitope) [compound 1707]
- Rank of partial sequence as epitope binding to IgE antibody (serum of patient P29 (WDEIA), sequence without X): Key

Substance: 1383 (PPQQQ; REGION 1..5: note = epitope) [compound 1383]
- Epitope sequence binding to IgE antibody, rank of the sequence [1]: Key

Substance: 1480 (YLQPQQPIS; REGION 1..9: note = epitope) [compound 1480]
- Rank of partial sequence as epitope binding to IgE antibody [2]: Key

Substance: 1710 (KEAANFTS; REGION 1..8: note = epitope) [compound 1710]
- epitope sequence binding to IgE antibody, rank (Key/Preferably/More preferably) (serum of patient P34 (WDEIA)): More preferably

Substance: 1788 (LKKVGYNP; REGION 1..8: note = epitope) [compound 1788]
- epitope sequence binding to IgE antibody, rank (Key/Preferably/More preferably) (serum of patient G9 (adult, general immediate type allergy to wheat)): Key

Substance: 1241 (PIQQQP; REGION 1..6: note = epitope) [compound 1241]
- Epitope sequence binding to IgE antibody, rank of the sequence [4]: Key

Substance: 1738 (EAANF; REGION 1..5: note = epitope) [compound 1738]
- epitope sequence binding to IgE antibody, rank (Key/Preferably/More preferably) (serum of patient P57 (child, general immediate type allergy to wheat)): Key

Substance: 1617 (VPFVPISG; REGION 1..8: note = epitope) [compound 1617]
- Rank of partial sequence as epitope binding to IgE antibody (serum of patient P20 (WDEIA), sequence without X): Preferably

Substance: 1445 (YLQPQ; REGION 1..5: note = epitope) [compound 1445]
- Rank of partial sequence as epitope binding to IgE antibody [5]: Key

Substance: 1688 (KEAA; REGION 1..4: note = epitope) [compound 1688]
- Rank of partial sequence as epitope binding to IgE antibody [6]: Key

Substance: 1540 (VQQQQFLG; REGION 1..8: note = epitope) [compound 1540]
- Rank of partial sequence as epitope binding to IgE antibody (serum of patient P17 (WDEIA), sequence without X): Preferably

Substance: 1340 (NVEN; REGION 1..4: note = epitope) [compound 1340]
- Epitope sequence binding to IgE antibody, rank of the sequence [7]: Key

Substance: 1749 (EAANFT; REGION 1..6: note = epitope) [compound 1749]
- epitope sequence binding to IgE antibody, rank (Key/Preferably/More preferably) (serum of patient G6 (adult, general immediate type allergy to wheat)): Key

Substance: 1488 (YLQPQQPIS; REGION 1..9: note = epitope) [compound 1488]
- Rank of partial sequence as epitope binding to IgE antibody (serum of patient P35 (WDEIA), sequence without X): Key

Substance: 1548 (QVPLVQQQ; REGION 1..8: note = epitope) [compound 1548]
- Rank of partial sequence as epitope binding to IgE antibody (serum of patient P34 (WDEIA), sequence without X): Preferably

Substance: 1361 (NVEN; REGION 1..4: note = epitope) [compound 1361]
- Epitope sequence binding to IgE antibody, rank of the sequence (serum of patient P51 (child, general immediate type allergy to wheat), sequence without X): Key

Substance: 1875 (TVRTLQRTV; REGION 1..9: note = epitope) [compound 1875]
- epitope sequence binding to IgE antibody, rank (Key/Preferably/More preferably) (serum of patient P31 (WDEIA)): More preferably

Substance: 1880 (TVRTLQRT; REGION 1..8: note = epitope) [compound 1880]
- epitope sequence binding to IgE antibody, rank (Key/Preferably/More preferably) (serum of patient P33 (WDEIA)): Preferably

Substance: 1711 (KEAANFT; REGION 1..7: note = epitope) [compound 1711]
- epitope sequence binding to IgE antibody, rank (Key/Preferably/More preferably) (serum of patient P34 (WDEIA)): Preferably

Substance: 1714 (KEAANF; REGION 1..6: note = epitope) [compound 1714]
- epitope sequence binding to IgE antibody, rank (Key/Preferably/More preferably) (serum of patient P35 (WDEIA)): Preferably

Substance: 1444 (YLQPQQPIS; REGION 1..9: note = epitope) [compound 1444]
- Rank of partial sequence as epitope binding to IgE antibody [5]: Preferably

Substance: 1503 (QPISQQQA; REGION 1..8: note = epitope) [compound 1503]
- Rank of partial sequence as epitope binding to IgE antibody [8]: Preferably

Substance: 1213 (PIQQQPQPFP; REGION 1..10: note = epitope) [compound 1213]
- Epitope sequence binding to IgE antibody, rank of the sequence (serum of patient P7 (WDEIA), sequence without X): Preferably

Substance: 1635 (YNPD; REGION 1..4: note = epitope) [compound 1635]
- Rank of partial sequence as epitope binding to IgE antibody [7]: Key

Substance: 1757 (KVGYNP; REGION 1..6: note = epitope) [compound 1757]
- epitope sequence binding to IgE antibody, rank (Key/Preferably/More preferably) (serum of patient P8 (WDEIA)): Key

Substance: 1305 (NRRALR; REGION 1..6: note = epitope) [compound 1305]
- Epitope sequence binding to IgE antibody, rank of the sequence (serum of patient P3 (WDEIA), sequence without X): Key

Substance: 1249 (QQPIQQQP; REGION 1..8: note = epitope) [compound 1249]
- Epitope sequence binding to IgE antibody, rank of the sequence [2]: Key

Substance: 1619 (FVPISG; REGION 1..6: note = epitope) [compound 1619]
- Rank of partial sequence as epitope binding to IgE antibody [5]: Key

Substance: 1816 (LEALPKFL; REGION 1..8: note = epitope) [compound 1816]
- epitope sequence binding to IgE antibody, rank (Key/Preferably/More preferably) (serum of patient P30 (WDEIA)): Key

Substance: 1611 (YNPD; REGION 1..4: note = epitope) [compound 1611]
- Rank of partial sequence as epitope binding to IgE antibody [3]: Key

Substance: 1494 (YLQPQQPISQ; REGION 1..10: note = epitope) [compound 1494]
- Rank of partial sequence as epitope binding to IgE antibody (serum of patient G6 (adult, general immediate type allergy to wheat), sequence without X): Preferably

Substance: 1614 (YNPD; REGION 1..4: note = epitope) [compound 1614]
- Rank of partial sequence as epitope binding to IgE antibody (serum of patient P16 (WDEIA), sequence without X): Key

Next, values leading:

- epitope sequence binding to IgE antibody, rank (Key/Preferably/More preferably) (serum of patient P15 (WDEIA)): Key
Substance: 1928 (VPLVQQQ; REGION 1..7: note = epitope) [compound 1928]

- epitope sequence binding to IgE antibody, rank (Key/Preferably/More preferably) (serum of patient P24 (WDEIA)): Preferably
Substance: 1951 (QFPGQQQ; REGION 1..7: note = epitope) [compound 1951]

- epitope sequence binding to IgE antibody, rank (Key/Preferably/More preferably) (serum of patient P36 (WDEIA)): Key
Substance: 1886 (TVRTLQRT; REGION 1..8: note = epitope) [compound 1886]

- Epitope sequence binding to IgE antibody, rank of the sequence (Key/Preferably/More preferably) [3]: Preferably
Substance: 2272 (GIDKRVIERF; REGION 1..10: note = epitope) [compound 2272]

- Epitope sequence binding to IgE antibody, rank of the sequence (Key/Preferably/More preferably/Further preferably) (serum of patient P50 (child, general immediate type allergy to wheat), sequence without X): More preferably
Substance: 2464 (WSGKTENEE; REGION 1..9: note = epitope) [compound 2464]

- epitope sequence binding to IgE antibody, rank (Key/Preferably/More preferably) (serum of patient P4 (WDEIA)): Key
Substance: 1906 (QFPGQQQ; REGION 1..7: note = epitope) [compound 1906]

- Epitope sequence binding to IgE antibody, rank of the sequence (Key/Preferably/More preferably) [2]: Key
Substance: 2390 (VTEIV; REGION 1..5: note = epitope) [compound 2390]

- epitope sequence binding to IgE antibody, rank (Key/Preferably/More preferably) (serum of patient P21 (WDEIA)): Key
Substance: 1943 (QFPGQQ; REGION 1..6: note = epitope) [compound 1943]

- Epitope sequence binding to IgE antibody, rank of the sequence (serum of patient P29 (WDEIA), partial sequence): Key
Substance: 2735 (GIGTVPVGRV; REGION 1..10: note = epitope) [compound 2735]

- Epitope sequence binding to IgE antibody, rank of the sequence (Key/Preferably/More preferably) (serum of patient P36 (WDEIA), sequence without X): Key
Substance: 2243 (RLLRGIRNY; REGION 1..9: note = epitope) [compound 2243]

- epitope sequence binding to IgE antibody, rank (Key/Preferably/More preferably) (serum of patient P7 (WDEIA)): Key
Substance: 1910 (QFPGQQQ; REGION 1..7: note = epitope) [compound 1910]

- Epitope sequence binding to IgE antibody, rank of the sequence (Key/Preferably/More preferably) (serum of patient P9 (WDEIA), sequence without X): Key
Substance: 2347 (VTEI; REGION 1..4: note = epitope) [compound 2347]

- Epitope sequence binding to IgE antibody, rank of the sequence (serum of patient P34 (WDEIA), partial sequence): Key
Substance: 2746 (KIGGI; REGION 1..5: note = epitope) [compound 2746]

- Epitope sequence binding to IgE antibody, rank of the sequence (Key/Preferably/More preferably) (serum of patient P18 (WDEIA), sequence without X): Key
Substance: 2282 (IDKRVIER; REGION 1..8: note = epitope) [compound 2282]

- Epitope sequence binding to IgE antibody, rank of the sequence (serum of patient P30 (WDEIA), partial sequence): Key
Substance: 2689 (YKGPTL; REGION 1..6: note = epitope) [compound 2689]

- Epitope sequence binding to IgE antibody, rank of the sequence (Key/Preferably/More preferably) [8]: More preferably
Substance: 2487 (KAWSGK; REGION 1..6: note = epitope) [compound 2487]

- Epitope sequence binding to IgE antibody, rank of the sequence [9]: Key
Substance: 2553 (QLVQ; REGION 1..4: note = epitope) [compound 2553]

- epitope sequence binding to IgE antibody, rank (Key/Preferably/More preferably) (serum of patient P32 (WDEIA)): Preferably
Substance: 1961 (QQQQFPGQQ; REGION 1..9: note = epitope) [compound 1961]

- Epitope sequence binding to IgE antibody, rank of the sequence (Key/Preferably/More preferably) [4]: Key
Substance: 2373 (TEIV; REGION 1..4: note = epitope) [compound 2373]

- Epitope sequence binding to IgE antibody, rank of the sequence (serum of patient P57 (child, general immediate type allergy to wheat), partial sequence): Preferably
Substance: 2668 (KEAAE; REGION 1..5: note = epitope) [compound 2668]

- Epitope sequence binding to IgE antibody, rank of the sequence (Key/Preferably/More preferably) [4]: Key
Substance: 2371 (HDIDRCAY; REGION 1..8: note = epitope) [compound 2371]

- Epitope sequence binding to IgE antibody, rank of the sequence (serum of patient P8 (WDEIA), partial sequence): Key
Substance: 2707 (YKIGGIGT; REGION 1..8: note = epitope) [compound 2707]

- Epitope sequence binding to IgE antibody, rank of the sequence (Key/Preferably/More preferably) [1]: More preferably
Substance: 2350 (YVTEIVL; REGION 1..7: note = epitope) [compound 2350]

- Epitope sequence binding to IgE antibody, rank of the sequence (Key/Preferably/More preferably) [6]: Preferably
Substance: 2280 (DKRVIERFEK; REGION 1..10: note = epitope) [compound 2280]

- Epitope sequence binding to IgE antibody, rank of the sequence [9]: Preferably
Substance: 2552 (QLVQQLCC; REGION 1..8: note = epitope) [compound 2552]

- Epitope sequence binding to IgE antibody, rank of the sequence (serum of patient P53 (child, general immediate type allergy to wheat), partial sequence): Preferably
Substance: 2518 (PSQLNPQ; REGION 1..7: note = epitope) [compound 2518]
